From patent publication US20250222120A1, “SYNTHESIS OF NOVEL SMALL MOLECULE CARM1 DEGRADERS, COMPOUNDS FORMED THEREBY, AND PHARMACEUTICAL COMPOSITIONS CONTAINING THEM” (Wisconsin Alumni Research Foundation, priority 2024, published 2025)

Molecular target: T1, PRMT5 (Homo sapiens, UniProt O14744)
T1 construct: we performed a global quantitative proteomic analysis of MCF7 cells using mass spectrometry; endogenous in cells; host or cells: MCF7
Assay: Global proteomics of MCF7 cells, PRMT5 level
Format: cell-based
Conditions: 25 nM, 4 h, versus DMSO
Description: Sample preparation for global proteomics analysis. Sample preparation is similar to the previous report (Ma et al. “Strategy Based on Deglycosylation, Multiprotease, and Hydrophilic Interaction Chromatography for Large-Scale Profiling of Protein Methylation” Anal. Chem. 2017, 89 (23), 12909-12917). Briefly, treated MCF7 cells were harvested by washing with PBS buffer (Gibco, pH 7.4) and lysed in RIPA buffer supplemented with protease inhibitors for 20 min, then protein concentration was determined using a BCA Protein Assay Kit (Thermo Pierce, Rockford, IL) per manufacturer instructions. […] The concentrations of the peptide mixture were measured by peptide assay (Thermo Fisher Scientific). […]
LC-MS/MS data acquisition. Samples were analyzed on an Orbitrap Fusion Lumos Tribrid mass spectrometer (Thermo Fisher Scientific) coupled to a Dionex UltiMate 3000 UPLC system. […]
Data analysis. Protein identification and quantification by MaxQuant (version 1.5.3.8) based database searching, using the integrated Andromeda search engine with FDR <1% at peptide and protein levels. […] For label-free protein quantification (LFQ), the MaxQuant LFQ algorithm was used to quantitate the MS signals, and the proteins' intensities were represented in LFQintesnit (Schaab et al. “Analysis of High Accuracy, Quantitative Proteomics Data in the MaxQB Database” Mol. Cell. Proteomics 2012, 11 (3), M111.014068). […]

T1 sequence (O14744 whole entry): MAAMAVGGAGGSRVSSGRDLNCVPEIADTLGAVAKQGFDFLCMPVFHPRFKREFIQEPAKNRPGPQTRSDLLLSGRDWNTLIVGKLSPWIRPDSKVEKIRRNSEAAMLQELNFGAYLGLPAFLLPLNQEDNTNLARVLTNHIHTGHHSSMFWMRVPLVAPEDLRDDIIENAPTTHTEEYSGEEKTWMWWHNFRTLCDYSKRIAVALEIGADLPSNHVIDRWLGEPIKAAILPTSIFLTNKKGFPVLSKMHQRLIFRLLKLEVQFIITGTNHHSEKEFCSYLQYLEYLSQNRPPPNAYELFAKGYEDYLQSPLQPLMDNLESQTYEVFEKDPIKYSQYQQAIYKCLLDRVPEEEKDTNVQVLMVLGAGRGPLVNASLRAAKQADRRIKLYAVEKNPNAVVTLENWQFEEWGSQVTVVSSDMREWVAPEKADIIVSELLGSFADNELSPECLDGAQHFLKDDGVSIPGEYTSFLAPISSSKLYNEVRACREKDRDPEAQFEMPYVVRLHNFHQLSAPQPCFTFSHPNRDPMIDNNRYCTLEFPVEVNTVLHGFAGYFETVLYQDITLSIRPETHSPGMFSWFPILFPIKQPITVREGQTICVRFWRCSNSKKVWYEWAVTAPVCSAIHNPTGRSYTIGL

SMILES: CNCCN1CCC(c2cc(CN(C)C(=O)c3cccc(Oc4ccc(OCC(=O)N5CCC(CN6CCC(CN7CCN(CC(=O)N[C@H](C(=O)N8C[C@H](O)C[C@H]8C(=O)N[C@@H](C)c8ccc(-c9scnc9C)cc8)C(C)(C)C)CC7)CC6)CC5)cc4)c3)ccn2)CC1 [Compound 3b, (2S,4R)-1-((S)-3,3-dimethyl-2-(2-(4-((1-((1-(2-(4-(3-(methyl((2-(1-(2-(methylamino)ethyl)piperidin-4-yl)pyridin-4-yl)methyl)carbamoyl)phenoxy)phenoxy)acetyl)piperidin-4-yl)methyl)piperidin-4-yl)methyl)piperazin-1-yl)acetamido)butanoyl)-4-hydroxy-N—((S)-1-(4-(4-methylthiazol-5-yl)phenyl)ethyl)pyrrolidine-2-carboxamide]
- PRMT5 protein level in proteomics: not significantly changed
